What was measured:
Human recombinant MAOA = Human recombinant MAOA (Homo sapiens (Human), UniProt P21397); experiment: MAOA in vitro activity experiment (MAO-Glo); assay type: biochemical
human recombinant MAOB = human recombinant MAOB (Homo sapiens (Human), UniProt P27338); experiment: MAOB in vitro activity experiment (MAO-Glo); assay type: biochemical
human recombinant MAOB, sequence (P27338 whole entry): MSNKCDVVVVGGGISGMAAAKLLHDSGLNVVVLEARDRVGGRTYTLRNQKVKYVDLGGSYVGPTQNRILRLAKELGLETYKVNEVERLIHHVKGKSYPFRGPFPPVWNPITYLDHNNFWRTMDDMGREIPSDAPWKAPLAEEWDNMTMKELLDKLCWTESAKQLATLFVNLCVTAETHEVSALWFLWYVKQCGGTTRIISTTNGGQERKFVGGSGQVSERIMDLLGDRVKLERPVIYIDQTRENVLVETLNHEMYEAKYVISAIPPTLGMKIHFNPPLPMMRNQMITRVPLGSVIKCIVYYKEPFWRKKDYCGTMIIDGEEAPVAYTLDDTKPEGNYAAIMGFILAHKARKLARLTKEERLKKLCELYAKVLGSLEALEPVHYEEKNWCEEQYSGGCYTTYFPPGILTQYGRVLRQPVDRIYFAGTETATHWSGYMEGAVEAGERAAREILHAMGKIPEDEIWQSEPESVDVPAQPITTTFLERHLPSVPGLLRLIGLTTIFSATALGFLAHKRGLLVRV

Human recombinant MAOA, sequence (P21397 whole entry): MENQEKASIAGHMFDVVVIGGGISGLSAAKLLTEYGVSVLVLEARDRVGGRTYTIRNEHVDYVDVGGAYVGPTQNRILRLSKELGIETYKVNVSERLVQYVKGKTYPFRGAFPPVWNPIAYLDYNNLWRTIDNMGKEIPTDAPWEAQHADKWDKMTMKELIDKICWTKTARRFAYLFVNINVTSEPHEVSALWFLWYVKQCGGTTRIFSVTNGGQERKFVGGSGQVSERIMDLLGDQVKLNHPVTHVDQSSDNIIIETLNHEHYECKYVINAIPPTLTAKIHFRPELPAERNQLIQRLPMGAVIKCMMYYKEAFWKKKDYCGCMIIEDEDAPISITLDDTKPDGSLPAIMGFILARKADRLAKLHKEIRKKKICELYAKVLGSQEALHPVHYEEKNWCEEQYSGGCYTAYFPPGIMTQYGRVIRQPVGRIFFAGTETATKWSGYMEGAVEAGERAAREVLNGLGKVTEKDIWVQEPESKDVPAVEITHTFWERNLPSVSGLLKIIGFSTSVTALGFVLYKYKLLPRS

| SMILES | IC50 (Human recombinant MAOA) | IC50 (human recombinant MAOB) |
| --- | --- | --- |
| O=S(=O)(C1CCCCC1)N1CCc2cc([C@@H]3C[C@H]3NCC3CCNCC3)ccc21 (relative stereo) [Compound A43, trans-2-(1-(cyclohexylsulfonyl)indolin-5-yl)-N-(piperidin-4-ylmethyl)cyclopropylamine] | > 100 µM | > 100 µM |
| O=S(=O)(c1ccc2ccccc2c1)N1CCc2cc([C@@H]3C[C@H]3NCC3CCNCC3)ccc21 (relative stereo) [Compound A33, Trans-2-(1-(naphthalen-2-ylsulfonyl)indolin-5-yl)-N-(piperidin-4-ylmethyl)cyclopropylamine] | 35.5 ± 0.87 µM | 82 ± 1.39 µM |
| O=S(=O)(c1ccc(-c2ccccc2)cc1)N1CCc2cc([C@@H]3C[C@H]3NCC3CCNCC3)ccc21 (relative stereo) [Compound A32, Trans-2-(1-(biphenyl-4-ylsulfonyl)indolin-5-yl)-N-(piperidin-4-ylmethyl)cyclopropylamine] | > 100 µM | 89.4 ± 2.05 µM |
| CC1(CN[C@@H]2C[C@H]2c2ccc3c(c2)CCN3S(=O)(=O)c2ccccc2)CCNCC1 (relative stereo) [Compound A21, trans-N-((4-methylpiperidin-4-yl)methyl)-2-(1-(phenylsulfonyl)indolin-5-yl)cyclopropylamine] | > 100 µM | > 100 µM |
| O=S(=O)(c1cccc(C(F)(F)F)c1)N1CCc2cc([C@@H]3C[C@H]3NCC3CCNCC3)ccc21 (relative stereo) [Compound A35, trans-N-(piperidin-4-ylmethyl)-2-(1-(3-(trifluoromethyl)benzenesulfonyl)indolin-5-yl)cyclopropylamine] | 49.8 ± 20.9 µM | 86.2 ± 18.7 µM |
| O=S(=O)(c1ccccc1)N1CCc2cc([C@@H]3C[C@H]3NC3CC4(CCNCC4)C3)ccc21 (relative stereo) [Compound A20, trans-N-(2-(1-(phenylsulfonyl)indolin-5-yl)cyclopropyl)-7-azaspiro[3.5]nonane-2-amine] | > 100 µM | > 100 µM |

Continued, values first:

| IC50 (Human recombinant MAOA) | IC50 (human recombinant MAOB) | SMILES |
| --- | --- | --- |
| > 100 µM | > 100 µM | CCCCC(=O)N1CCc2cc([C@@H]3C[C@H]3NCC3CCNCC3)ccc21 (relative stereo) [Compound A55, Trans-1-(5-(2-(piperidin-4-ylmethylamino)cyclopropyl)indolin-1-yl)pentan-1-one] |
| > 100 µM | > 100 µM | CCCC(=O)N1CCc2cc([C@@H]3C[C@H]3NCC3CCNCC3)ccc21 (relative stereo) [Compound A54, Trans-1-(5-(2-(piperidin-4-ylmethylamino)cyclopropyl)indolin-1-yl)butan-1-one] |
| > 100 µM | > 100 µM | CCC(=O)N1CCc2cc([C@@H]3C[C@H]3NCC3CCNCC3)ccc21 (relative stereo) [Compound A53, Trans-1-(5-(2-(piperidin-4-ylmethylamino)cyclopropyl)indolin-1-yl)propan-1-one] |
| 38.6 ± 5.23 µM | > 100 µM | COc1cccc(S(=O)(=O)N2CCc3cc([C@@H]4C[C@H]4NCC4CCNCC4)ccc32)c1 (relative stereo) [Compound A39, trans-2-(1-(3-methoxybenzenesulfonyl)indolin-5-yl)-N-(piperidin-4-ylmethyl)cyclopropylamine] |
| > 100 µM | > 100 µM | CS(=O)(=O)N1CCc2cc([C@@H]3C[C@H]3NCC3CCNCC3)ccc21 (relative stereo) [Compound A40, Trans-2-(1-(methylsulfonyl)indolin-5-yl)-N-(piperidin-4-ylmethyl)cyclopropylamine] |
| 86.6 ± 1.05 µM | 3.14 ± 0.15 µM | O=S(=O)(N1CCc2cc([C@@H]3C[C@H]3NCC3CCNCC3)ccc21)C(F)(F)F (relative stereo) [Compound A42, trans-N-(piperidin-4-ylmethyl)-2-(1-(trifluoromethanesulfonyl)indolin-5-yl)cyclopropylamine] |
| 96.3 ± 2.05 µM | – | NC1CCC(CNC2CC2c2ccc3c(c2)CCN3S(=O)(=O)c2ccccc2)CC1 (stereo not drawn) [Compound A18, trans-4-((2-(1-(phenylsulfonyl)indolin-5-yl)cyclopropylamino)methyl)cyclohexylamine] |
